Among the data in PubChem BioAssay AID256 (DTP/NCI, 2004) are T/C values, retold here.

Values joined by “and” are separate entries in the source; they are usually repeats but may differ in a detail not shown here. Equal values may be shown once. Toxic doses and inconclusive results are not listed.

In this assay the test system is CD2F1 mice, L1210 leukemia ip, survival T/C. The assay is described as follows: NCI In Vivo Anticancer Drug Screen. Data for tumor model L1210 Leukemia (intraperitoneal) in CD2F1 (CDF1) mice. The following applies: higher = longer survival. The method, boiled down: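 Vehicle-treated tumor-bearing mice served as controls (C) for compound-treated mice (T). Reported figure is T divided by C.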

The mark [1] stands for this setting: endpoint: mean survival time, dose: 25.0 mg/kg/injection, schedule: Q01DX009 (ip), vehicle: saline with Tween-80.
Setting [2] is: endpoint: mean survival time, dose: 25.0 mg/kg/injection, schedule: Q04DX003 (ip), vehicle: saline with Tween-80.
[3] abbreviates: endpoint: mean survival time, dose: 50.0 mg/kg/injection, schedule: Q01DX009 (ip), vehicle: saline with Tween-80.
[4] abbreviates: endpoint: mean survival time, dose: 50.0 mg/kg/injection, schedule: Q04DX003 (ip), vehicle: saline with Tween-80.
Where [5] appears, read: endpoint: mean survival time, dose: 100.0 mg/kg/injection, schedule: Q01DX009 (ip), vehicle: saline with Tween-80.
[6] abbreviates: endpoint: mean survival time, dose: 100.0 mg/kg/injection, schedule: Q04DX003 (ip), vehicle: saline with Tween-80.
Where [7] appears, read: endpoint: mean survival time, dose: 200.0 mg/kg/injection, schedule: Q01DX009 (ip), vehicle: saline with Tween-80.
Where [8] appears, read: endpoint: mean survival time, dose: 200.0 mg/kg/injection, schedule: Q04DX003 (ip), vehicle: saline with Tween-80.
Where [9] appears, read: endpoint: mean survival time, dose: 400.0 mg/kg/injection, schedule: Q04DX003 (ip), vehicle: saline with Tween-80.
Where [10] appears, read: endpoint: mean survival time, dose: 100.0 mg/kg/injection, schedule: Q01DX009 (ip), vehicle: Klucel (hydroxypropylcellulose) (HPC).
[11] abbreviates: endpoint: mean survival time, dose: 200.0 mg/kg/injection, schedule: Q01DX009 (ip), vehicle: Klucel (hydroxypropylcellulose) (HPC).
[12] abbreviates: endpoint: mean survival time, dose: 100.0 mg/kg/injection, schedule: Q04DX002 (ip), vehicle: saline with Tween-80.
The mark [13] stands for this setting: endpoint: mean survival time, dose: 200.0 mg/kg/injection, schedule: Q04DX002 (ip), vehicle: saline with Tween-80.
The mark [14] stands for this setting: endpoint: mean survival time, dose: 400.0 mg/kg/injection, schedule: Q04DX002 (ip), vehicle: saline with Tween-80.
The mark [15] stands for this setting: endpoint: mean survival time, dose: 400.0 mg/kg/injection, schedule: Q01DX009 (ip), vehicle: saline with Tween-80.
Where [16] appears, read: endpoint: mean survival time, dose: 100.0 mg/kg/injection, schedule: Q04DX003 (ip), vehicle: saline.
The mark [17] stands for this setting: endpoint: mean survival time, dose: 200.0 mg/kg/injection, schedule: Q04DX003 (ip), vehicle: saline.

Take `Clc1ccc2nnnn2n1`: the T/C is, setting by setting: (endpoint: mean survival time, dose: 12.5 mg/kg/injection, schedule: Q01DX009 (ip), vehicle: saline with Tween-80) 105 % of control; under setting [1], 113 % of control and 114 % of control; under setting [2], 96 % of control; (endpoint: mean survival time, dose: 31.75 mg/kg/injection, schedule: Q04DX003 (ip), vehicle: saline with Tween-80) 106 % of control; under setting [3], 100 % of control and 110 % of control; under setting [4], 100 % of control. Also, the T/C was 103 % of control (endpoint: mean survival time, dose: 62.5 mg/kg/injection, schedule: Q04DX003 (ip), vehicle: saline with Tween-80); 114 % of control and 122 % of control under setting [5]; 107 % of control under setting [6]; 103 % of control (endpoint: mean survival time, dose: 125.0 mg/kg/injection, schedule: Q04DX003 (ip), vehicle: saline with Tween-80); 100 % of control under setting [7]; 105 % of control under setting [8]. Moreover, the T/C is 105 % of control (endpoint: mean survival time, dose: 250.0 mg/kg/injection, schedule: Q04DX003 (ip), vehicle: saline with Tween-80); 108 % of control under setting [9]; 102 % of control and 103 % of control (endpoint: median survival time, dose: 25.0 mg/kg/injection, schedule: Q01DX009 (ip), vehicle: saline with Tween-80); 114 % of control (endpoint: median survival time, dose: 25.0 mg/kg/injection, schedule: Q04DX003 (ip), vehicle: saline with Tween-80); 113 % of control and 108 % of control (endpoint: median survival time, dose: 50.0 mg/kg/injection, schedule: Q01DX009 (ip), vehicle: saline with Tween-80); 112 % of control (endpoint: median survival time, dose: 50.0 mg/kg/injection, schedule: Q04DX003 (ip), vehicle: saline with Tween-80). Moreover, the T/C (endpoint: median survival time, dose: 100.0 mg/kg/injection, schedule: Q01DX009 (ip), vehicle: saline with Tween-80) was 118 % of control; the T/C (endpoint: median survival time, dose: 100.0 mg/kg/injection, schedule: Q04DX003 (ip), vehicle: saline with Tween-80) is 113 % of control; the T/C (endpoint: median survival time, dose: 200.0 mg/kg/injection, schedule: Q01DX009 (ip), vehicle: saline with Tween-80) is 117 % of control and 108 % of control; the T/C (endpoint: median survival time, dose: 200.0 mg/kg/injection, schedule: Q04DX003 (ip), vehicle: saline with Tween-80) was 110 % of control; the T/C (endpoint: median survival time, dose: 400.0 mg/kg/injection, schedule: Q04DX003 (ip), vehicle: saline with Tween-80) was 118 % of control.
Consider `CCCNC(=O)Oc1ccc(Br)cc1Br`, for which the T/C (endpoint: mean survival time, dose: 50.0 mg/kg/injection, schedule: Q01DX009 (ip), vehicle: Klucel (hydroxypropylcellulose) (HPC)) is 108 % of control; the T/C under setting [10] was 97 % of control; the T/C under setting [11] was 94 % of control.
Consider `CCC1CN2CCC1CC2C(O)c1cc[n+]([O-])c2ccc(OC)cc12` (configuration not stated), for which the T/C by setting is: (endpoint: mean survival time, dose: 100.0 mg/kg/injection, schedule: Q04DX003 (ip), vehicle: Klucel (hydroxypropylcellulose) (HPC)) 98 % of control; (endpoint: mean survival time, dose: 200.0 mg/kg/injection, schedule: Q04DX003 (ip), vehicle: Klucel (hydroxypropylcellulose) (HPC)) 102 % of control; (endpoint: mean survival time, dose: 400.0 mg/kg/injection, schedule: Q04DX003 (ip), vehicle: Klucel (hydroxypropylcellulose) (HPC)) 102 % of control.
Turning to `O=C(Nc1ccccc1C(F)(F)F)OCCOc1ccc(Br)cc1`, the T/C under setting [10] is 100 % of control; the T/C under setting [11] is 103 % of control; the T/C (endpoint: mean survival time, dose: 400.0 mg/kg/injection, schedule: Q01DX009 (ip), vehicle: Klucel (hydroxypropylcellulose) (HPC)) was 87 % of control.
In the case of `O=C1OC(=O)C2C(c3ccccc3)=C3C(=C(c4ccccc4)C12)c1cccc2cccc3c12` (configuration not stated), the T/C is 94 % of control under setting [12], 97 % of control under setting [13] and 94 % of control under setting [14].
As to `c1ccc(OCCCNc2ccccn2)cc1`, the T/C reads like this: under setting [2], 92 % of control; under setting [4], 103 % of control; under setting [6], 92 % of control and 97 % of control.
For the compound `Clc1cccc(Cl)c1C(Nc1nncs1)Nc1nncs1`, the T/C runs as follows: (endpoint: median survival time, dose: 25.0 mg/kg/injection, schedule: Q01DX005 (ip), vehicle: saline with Tween-80) 113 % of control; (endpoint: median survival time, dose: 144.0 mg/kg/injection, schedule: Q01DX005 (ip), vehicle: saline with Tween-80) 151 % of control; (endpoint: median survival time, dose: 240.0 mg/kg/injection, schedule: Q01DX005 (ip), vehicle: saline with Tween-80) 171 % of control; (endpoint: median survival time, dose: 400.0 mg/kg/injection, schedule: Q01DX005 (ip), vehicle: saline with Tween-80) 192 % of control and 223 % of control.
Regarding `Brc1nc(Br)c(Br)[nH]1`, the T/C was 86 % of control under setting [1], 95 % of control under setting [3], 92 % of control under setting [5] and 100 % of control under setting [6].
Consider `CCOc1ccccc1NC(=O)C(Br)C(Br)C(=O)O` (configuration not stated), for which the T/C by setting is: (endpoint: mean survival time, dose: 100.0 mg/kg/injection, schedule: Q01DX001 (ip), vehicle: saline with Tween-80) 110 % of control; (endpoint: mean survival time, dose: 200.0 mg/kg/injection, schedule: Q01DX001 (ip), vehicle: saline with Tween-80) 112 % of control; (endpoint: mean survival time, dose: 400.0 mg/kg/injection, schedule: Q01DX001 (ip), vehicle: saline with Tween-80) 108 % of control.
In the case of `NC(=O)CC(NC(c1ccccc1)(c1ccccc1)c1ccccc1)C(=O)ON1C(=O)CCC1=O` (configuration not stated), the T/C is 96 % of control (endpoint: mean survival time, dose: 100.0 mg/kg/injection, schedule: Q01DX001 (ip), vehicle: saline sonified); 98 % of control (endpoint: mean survival time, dose: 200.0 mg/kg/injection, schedule: Q01DX001 (ip), vehicle: saline sonified); 105 % of control (endpoint: mean survival time, dose: 400.0 mg/kg/injection, schedule: Q01DX001 (ip), vehicle: saline sonified).
`CC(C)(C)[N+](Cc1ccccc1)(Cc1ccccc1)Cc1ccccc1`: the T/C under setting [5] is 104 % of control, the T/C under setting [7] is 96 % of control and the T/C under setting [15] was 98 % of control.
Take `N#CCC(=O)OCCCCOC(=O)CC#N`: the T/C reads like this: under setting [5], 96 % of control; under setting [6], 103 % of control; under setting [7], 97 % of control; under setting [8], 97 % of control; under setting [15], 96 % of control; under setting [9], 100 % of control.
`O=[N+]([O-])c1ccc(/C=C/C=C/c2ccccc2)cc1`: the T/C is, setting by setting: under setting [6], 101 % of control; under setting [8], 98 % of control; under setting [9], 95 % of control.
As to `Cc1cccc(CCc2cccc(C)n2)n1`, the T/C reads like this: under setting [16], 103 % of control; under setting [17], 103 % of control; (endpoint: mean survival time, dose: 400.0 mg/kg/injection, schedule: Q04DX003 (ip), vehicle: saline) 103 % of control.
As for `O=C(CCl)NCCCNC(=O)CCl`, the T/C under setting [6] was 105 % of control.
`Cc1cc(C)nc(NC(=S)N/N=C/c2ccccn2)n1`: the T/C is 98 % of control under setting [12], 98 % of control under setting [13] and 106 % of control under setting [14].
For `CN(Cc1cnc2nc(N)nc(N)c2n1)c1ccc(C(=O)NC(CCC(=O)NCc2ccccc2)C(=O)O)cc1` (configuration not stated), the T/C by setting is: (endpoint: mean survival time, dose: 5.0 mg/kg/injection, schedule: Q01DX009 (ip), vehicle: sodium bicarbonate) 108 % of control; (endpoint: mean survival time, dose: 10.0 mg/kg/injection, schedule: Q01DX009 (ip), vehicle: sodium bicarbonate) 112 % of control.
For `Cc1ccccc1C(C)(C#N)Nc1ccccc1` (configuration not stated), the T/C runs as follows: under setting [6], 101 % of control; under setting [8], 103 % of control; under setting [9], 104 % of control.
Turning to `O=C(O)C1CC1.[Ag]`, the T/C reads like this: (endpoint: mean survival time, dose: 0.78 mg/kg/injection, schedule: Q01DX009 (ip), vehicle: water) 100 % of control; (endpoint: mean survival time, dose: 1.56 mg/kg/injection, schedule: Q01DX009 (ip), vehicle: water) 100 % of control; (endpoint: mean survival time, dose: 3.12 mg/kg/injection, schedule: Q01DX009 (ip), vehicle: water) 96 % of control; (endpoint: mean survival time, dose: 6.25 mg/kg/injection, schedule: Q01DX009 (ip), vehicle: water) 102 % of control; (endpoint: mean survival time, dose: 12.5 mg/kg/injection, schedule: Q01DX009 (ip), vehicle: water) 102 % of control; (endpoint: mean survival time, dose: 25.0 mg/kg/injection, schedule: Q01DX009 (ip), vehicle: water) 104 % of control. The T/C by setting is: under setting [16], 93 % of control; under setting [17], 93 % of control.
As to `COC1CC2C3CCC4(OC5CC(C)CN(C(C)=O)C5C4C)C(C)=C3C(=O)C2C2(C)CCC3CC312` (configuration not stated), the T/C is 106 % of control under setting [6], 101 % of control under setting [8] and 104 % of control under setting [9].
